ChEMBL document CHEMBL3045720, “Synthesis and antifungal activity of 2-chloromethyl-1H-benzimidazole derivatives against phytopathogenic fungi in vitro” (J Agric Food Chem, 2013)
≈ marks a conversion by molar mass, not a printed value.

Columns and labels:
Botrytis cinerea [1] = experiment: Antifungal activity against Botryotinia fuckeliana assessed as inhibition of mycelium growth at 100 ug/ml […]; format: functional; conditions: 168 h, read-out: GI
Cytospora [2] = experiment: Antifungal activity against Cytospora sp. assessed as […]; format: functional, organism-based
[3] = test system: Colletotrichum gloeosporioides; experiment: Antifungal activity against Colletotrichum gloeosporioides assessed as inhibition of mycelium growth at 100 ug/ml after 3 to 4 days; conditions: 72 to 96 h, read-out: GI
Botrytis cinerea [4] = experiment: Antifungal activity against Botryotinia fuckeliana assessed as inhibition of mycelium growth after 1 week; format: functional, organism-based; conditions: 168 h
Fusarium solani [5] = experiment: Antifungal activity against Fusarium solani assessed as inhibition of mycelium growth at 100 ug/ml […]; format: functional; conditions: 168 h, read-out: GI
Fusarium solani [6] = experiment: Antifungal activity against Fusarium solani assessed as inhibition of mycelium growth after 1 week; format: functional, organism-based
[7] = test system: Colletotrichum gloeosporioides; experiment: Antifungal activity against Colletotrichum gloeosporioides assessed as inhibition of mycelium growth […]; format: functional, organism-based
Alternaria solani [8] = experiment: Antifungal activity against Alternaria solani assessed as inhibition of mycelium growth after 1 week; format: functional, organism-based
Cytospora [9] = experiment: Antifungal activity against Cytospora sp. assessed as inhibition of mycelium growth at 100 ug/ml after 3 to 4 days; conditions: 72 to 96 h, read-out: GI
Alternaria solani [10] = experiment: Antifungal activity against Alternaria solani assessed as inhibition of mycelium growth at 100 ug/ml […]; format: functional; conditions: 168 h, read-out: GI
[11] = Cytospora, 168 h, read-out: IC50
[12] = Fusarium solani, 168 h, read-out: IC50
[13] = Colletotrichum gloeosporioides, read-out: IC50
[14] = Alternaria solani, 168 h, read-out: IC50

Structure (SMILES) | inhibition of growth at 100 µg/mL (Botrytis cinerea [1]) [%] | IC50 (Cytospora [2]; [11]) [µg/mL] | inhibition of growth at 100 µg/mL [3] [%] | IC50 (Botrytis cinerea [4]) [µg/mL] | inhibition of growth at 100 µg/mL (Fusarium solani [5]) [%] | IC50 (Fusarium solani [6]; [12]) [µg/mL] | IC50 [7, 13] [µg/mL] | IC50 (Alternaria solani [8]; [14]) [µg/mL] | inhibition of growth at 100 µg/mL (Cytospora [9]) [%] | inhibition of growth at 100 µg/mL (Alternaria solani [10]) [%] | IC50 (Cytospora [2]) | IC50 (Fusarium solani [6]) | IC50 [7] | IC50 (Alternaria solani [8])
Cn1c(CCl)nc2cc([N+](=O)[O-])ccc21 | 48.7 | 22.5 (≈ 99.6 µM) | 100 | > 100 | 100 | 23.3 (≈ 103 µM) | 28 (≈ 124 µM) | 27.9 (≈ 124 µM) | 100 | 100 |  |  |  | 
Cn1c(COc2ccc3c(c2)OCO3)nc2cc([N+](=O)[O-])ccc21 | 91.2 |  | < 5 | 69.1 (≈ 211 µM) | 34.8 |  |  |  | 12.4 | 7.22 | Not Active | Not Active | Not Active | Not Active
Cn1c(COc2ccc(Cl)cc2)nc2ccccc21 | 83 | 24.9 (≈ 91.3 µM) | 90.5 | 26.8 (≈ 98.3 µM) | 64.1 | > 100 | 41.3 (≈ 151 µM) | 62.5 (≈ 229 µM) | 76.3 | 77.8 |  |  |  | 
CS(=O)(=O)n1c(CCl)nc2ccccc21 | 79.9 | 31 (≈ 127 µM) | 100 | 57.7 (≈ 236 µM) | 79.2 | 40.1 (≈ 164 µM) | 11.4 (≈ 46.5 µM) | > 100 | 100 | 68 |  |  |  | 
CC(=O)c1ccccc1OCc1nc2ccccc2n1C | 64.9 | > 100 | 71.4 | > 100 | 64.7 | > 100 | 70.6 (≈ 252 µM) | > 100 | 64.5 | 65.5 |  |  |  | 
CC(=O)c1ccc(OCc2nc3ccccc3n2C)cc1 | 65.4 | 50.7 (≈ 181 µM) | 38.1 | 89.6 (≈ 320 µM) | 81.8 | 39 (≈ 139 µM) | > 120 | > 100 | 87.1 | 55.7 |  |  |  | 
